Experimental findings from patent US20130316022A1, “METHOD TO ENHANCE ANTIMICROBIAL ACTIVITY BY INCREASING pH” (University of Iowa Research Foundation, priority 2012, published 2013) are described below.

The nature of test [1]: ASL pH measured in vivo with pH-sensitive planar optode on tracheal surface. Set-up: species or system pig.
Text: To assess pH in vivo, we used non-invasive dual lifetime referencing to interrogate a 3×3 mm planar optode (pH sensitive foil, PreSens GmbH, Regensburg, Germany)^13 applied directly to the tracheal surface. The device used to transmit and receive the excitation and emission light was a single channel pH meter (pH-1 mini; PreSens GmbH). The tip of the fiberoptic pH meter was kept at the same distance from the tracheal surface in all samples and confirmed by recording the amplitude registered by the device. Calibration before each set of measurements was done by placing the planar optode on the surface of a flat filter soaked in standard pH buffers.
(§1) To decrease airway pH in non-CF pigs, CO2 concentration was controlled in a humidified chamber (100% measured relative humidity, 25-30° C.) using 0 or 15% CO2 and 21% O2 in N2.
The test system of another test is S. aureus isolate 43SA. In words: Bacterial killing by S. aureus-coated grids placed on tracheal surface in vivo.
The next test deals with S. aureus. The settings on record: bacteria on grids exposed for 30 seconds.

Experimental for S. aureus isolate 43SA: Bacteria were cultured to log phase growth and 1×10^8 bacteria were mixed with 0.1 mg/ml N-hydroxysulfosuccinimide (sulfo-NHS)-biotin (Thermo Scientific) for 1 hour at room temperature. Streptavidin-coated grids were then incubated with biotinylated bacteria for 30 minutes and rinsed in PBS.
Bacteria-coated grids were used in three preparations. They were placed on the airway surface in vivo in pigs. They were tested in ASL removed from pigs after methacholine stimulation. They were also placed on the apical surface of primary cultures of differentiated airway epithelia. In each case, after removal from ASL, they were immediately (2-3 seconds) rinsed with PBS and then immersed in PBS containing the fluorescent indicators SYTO 9 and propidium iodide (Live/Dead BacLight™ Bacterial Viability assay, Invitrogen). Propidium iodide staining and this assay indicate the percentage of dead cells (Invitrogen, Molecular Probes product information and Fig. S7). […]
For each experimental condition, time point, and/or animal, 2 or 3 grids were examined. For each grid, all live and dead bacteria were counted in 5-16 individual microscopic (60×) fields; each microscopic field contained about 100-1000 bacteria. […]
as §1

On to `O=C=O` [CO2, reference compound], for which the “ASL pH” value in test [1] (non-CF pigs, tracheas exposed to 15% CO2 in vivo) was 6.89 ± 0.15 (6). The “% dead” value in the test on S. aureus isolate 43SA (non-CF pigs, 15% CO2, grids on surface for 30 seconds) is given as 18.5 ± 6.8 (4) %.
Regarding ethanol [70% alcohol], the “% dead” value with S. aureus is recorded as 97%.
As for `O=C([O-])O.[Na+]` [NaHCO3], the “ASL pH” value in test [1] (CF pigs, 50 μL 100 mM aerosolized onto airway surface) is recorded as 7.43 ± 0.30 (7). Further, the “% dead” value in the test with S. aureus isolate 43SA (CF pigs, 50 μL 100 mM aerosolized onto airway surface, grids 30 seconds) is 64.4 ± 7.0 (5) %.
